According to patent US9351974B2, “Substituted pteridinones for the treatment of cancer” (OSI Pharmaceuticals, LLC, priority 2011, dated 2016):

Molecular target: T1, His-tagged full-length RSK2 (RPS6KA3) (Homo sapiens, UniProt P51812)
T1 construct: His-tagged full-length RSK2 (RPS6KA3, Invitrogen PV3323); His; purchased Invitrogen PV3323
Experiment: RSK2 Omnia Assay for compound IC50 determination
Type: biochemical
Settings: ATP 15 μM, n=2, read-out: Mean RSK2 Biochem IC50
Method in brief: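 Initial-rate slopes from continuous kinetic reads were fitted to a four-parameter equation for IC50 (n=2). Ki was then derived by Cheng-Prusoff assuming ATP-competitive inhibition. Reactions contained 15 μM ATP (Km 16.3 μM), 5 μM Omnia ST Peptide 6, and […] in 50 mM HEPES pH 7.5, 10 mM MgCl2, 1 mM DTT, 1% DMSO. Compounds spanned 11 threefold steps, […] final.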

T1 sequence (P51812 whole entry): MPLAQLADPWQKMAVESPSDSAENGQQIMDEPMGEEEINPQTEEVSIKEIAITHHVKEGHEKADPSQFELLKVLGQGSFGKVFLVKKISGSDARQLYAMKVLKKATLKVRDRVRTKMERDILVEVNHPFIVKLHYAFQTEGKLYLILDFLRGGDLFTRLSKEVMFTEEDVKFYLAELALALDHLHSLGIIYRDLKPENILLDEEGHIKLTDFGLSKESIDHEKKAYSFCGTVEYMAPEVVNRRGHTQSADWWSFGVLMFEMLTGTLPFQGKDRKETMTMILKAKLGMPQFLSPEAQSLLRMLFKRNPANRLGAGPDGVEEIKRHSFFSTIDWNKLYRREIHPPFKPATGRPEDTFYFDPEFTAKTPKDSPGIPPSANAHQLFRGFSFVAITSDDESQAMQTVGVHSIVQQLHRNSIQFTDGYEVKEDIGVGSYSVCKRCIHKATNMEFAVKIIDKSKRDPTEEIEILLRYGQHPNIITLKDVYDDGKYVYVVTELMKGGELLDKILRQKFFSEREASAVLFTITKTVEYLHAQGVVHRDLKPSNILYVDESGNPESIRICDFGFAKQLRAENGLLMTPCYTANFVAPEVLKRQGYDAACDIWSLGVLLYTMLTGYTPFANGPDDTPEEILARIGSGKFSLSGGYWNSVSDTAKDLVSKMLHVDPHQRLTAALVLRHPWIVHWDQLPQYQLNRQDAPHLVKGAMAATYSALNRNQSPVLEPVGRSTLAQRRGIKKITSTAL

Structure (SMILES) | IC50 [µM]
C[C@@H]1C(=O)N(c2cccc(C#N)c2)c2cnc(Nc3cc(F)c(O)c(F)c3)nc2N1[C@H]1CC[C@H](C(F)(F)F)CC1 [compound 259, 3-[(7R)-2-[(3,5-difluoro-4-hydroxyphenyl)amino]-7-methyl-6-oxo-8-[trans-4-(trifluoromethyl)cyclohexyl]-7,8-dihydropteridin-5(6H)-yl]benzonitrile] | ≤ 0.1
C[C@@H]1C(=O)N(c2cccc(C#N)c2)c2cnc(Nc3ccc4[nH]ncc4c3)nc2N1C1CCC(F)(F)CC1 [compound 261, 3-[(7R)-8-(4,4-difluorocyclohexyl)-2-(1H-indazol-5-ylamino)-7-methyl-6-oxo-7,8-dihydropteridin-5(6H)-yl]benzonitrile] | ≤ 0.1
COc1ccc(N2C(=O)[C@@H](C)N(C3CCC(F)(F)CC3)c3nc(Nc4cc(F)c5[nH]ncc5c4)ncc32)cc1OC [compound 262, (7R)-8-(4,4-difluorocyclohexyl)-5-(3,4-dimethoxyphenyl)-2-[(7-fluoro-1H-indazol-5-yl)amino]-7-methyl-7,8-dihydropteridin-6(5H)-one] | ≤ 0.1
C[C@@H]1C(=O)N(c2cccc(F)c2)c2cnc(Nc3cc(F)c4[nH]ncc4c3)nc2N1C1CCC(F)(F)CC1 [compound 263, (7R)-8-(4,4-difluorocyclohexyl)-2-[(7-fluoro-1H-indazol-5-yl)amino]-5-(3-fluorophenyl)-7-methyl-7,8-dihydropteridin-6(5H)-one] | ≤ 0.1
C[C@@H]1C(=O)N(c2cccnc2)c2cnc(Nc3cc(F)c4[nH]ncc4c3)nc2N1C1CCC(F)(F)CC1 [compound 264, (7R)-8-(4,4-difluorocyclohexyl)-2-[(7-fluoro-1H-indazol-5-yl)amino]-7-methyl-5-(pyridin-3-yl)-7,8-dihydropteridin-6(5H)-one] | ≤ 0.1
C[C@@H]1C(=O)N(c2cccc(C#N)c2)c2cnc(Nc3ccc4[nH]c(=O)[nH]c4c3)nc2N1C1CCC(F)(F)CC1 [compound 265, 3-[(7R)-8-(4,4-difluorocyclohexyl)-7-methyl-6-oxo-2-[(2-oxo-2,3-dihydro-1H-benzimidazol-5-yl)amino]-7,8-dihydropteridin-5(6H)-yl]benzonitrile] | > 1
C[C@@H]1C(=O)N(c2cccc(C#N)c2)c2cnc(Nc3ccc4[nH]c(=O)oc4c3)nc2N1C1CCC(F)(F)CC1 [compound 266, 3-[(7R)-8-(4,4-difluorocyclohexyl)-7-methyl-6-oxo-2-[(2-oxo-2,3-dihydro-1,3-benzoxazol-6-yl)amino]-7,8-dihydropteridin-5(6H)-yl]benzonitrile] | ≤ 0.1
C[C@@H]1C(=O)N(c2cccc(C#N)c2)c2cnc(Nc3ccc4[nH]c(=O)sc4c3)nc2N1C1CCC(F)(F)CC1 [compound 267, 3-[(7R)-8-(4,4-difluorocyclohexyl)-7-methyl-6-oxo-2-[(2-oxo-2,3-dihydro-1,3-benzothiazol-6-yl)amino]-7,8-dihydropteridin-5(6H)-yl]benzonitrile] | ≤ 0.1
C[C@@H]1C(=O)N(c2cccc(C#N)c2)c2cnc(Nc3cc4cn[nH]c4cn3)nc2N1C1CCC(F)(F)CC1 [compound 268, 3-[(7R)-8-(4,4-difluorocyclohexyl)-7-methyl-6-oxo-2-(1H-pyrazolo[3,4-c]pyridin-5-ylamino)-7,8-dihydropteridin-5(6H)-yl]benzonitrile] | 0.1 to 1
C[C@@H]1C(=O)N(c2cccc(C#N)c2)c2cnc(Nc3ccc(C(=O)O)cc3)nc2N1C1CCC(F)(F)CC1 [compound 269, 4-{[(7R)-5-(3-cyanophenyl)-8-(4,4-difluorocyclohexyl)-7-methyl-6-oxo-5,6,7,8-tetrahydropteridin-2-yl]amino}benzoic acid] | ≤ 0.1
C[C@@H]1C(=O)N(c2cccc(C#N)c2)c2cnc(Nc3cnc4[nH]ncc4c3)nc2N1C1CCC(F)(F)CC1 [compound 270, 3-[(7R)-8-(4,4-difluorocyclohexyl)-7-methyl-6-oxo-2-(1H-pyrazolo[3,4-b]pyridin-5-ylamino)-7,8-dihydropteridin-5(6H)-yl]benzonitrile] | ≤ 0.1
C[C@@H]1C(=O)N(c2cccc(C#N)c2)c2cnc(Nc3ccc(C(=O)O)c(F)c3)nc2N1C1CCC(F)(F)CC1 [compound 271, 4-{[(7R)-5-(3-cyanophenyl)-8-(4,4-difluorocyclohexyl)-7-methyl-6-oxo-5,6,7,8-tetrahydropteridin-2-yl]amino}-2-fluorobenzoic acid] | ≤ 0.1
C[C@@H]1C(=O)N(c2cccc(C#N)c2)c2cnc(Nc3ccc(C(N)=O)c(F)c3)nc2N1C1CCC(F)(F)CC1 [compound 272, 4-{[(7R)-5-(3-cyanophenyl)-8-(4,4-difluorocyclohexyl)-7-methyl-6-oxo-5,6,7,8-tetrahydropteridin-2-yl]amino}-2-fluorobenzamide] | ≤ 0.1
C[C@@H]1C(=O)N(c2cccc(C#N)c2)c2cnc(Nc3ccc(S(N)(=O)=O)cc3)nc2N1C1CCC(F)(F)CC1 [compound 273, 4-{[(7R)-5-(3-cyanophenyl)-8-(4,4-difluorocyclohexyl)-7-methyl-6-oxo-5,6,7,8-tetrahydropteridin-2-yl]amino}benzenesulfonamide] | ≤ 0.1
C[C@@H]1C(=O)N(c2cccc(C#N)c2)c2cnc(Nc3ccc(C#N)cc3)nc2N1C1CCC(F)(F)CC1 [compound 274, 3-[(7R)-2-[(4-cyanophenyl)amino]-8-(4,4-difluorocyclohexyl)-7-methyl-6-oxo-7,8-dihydropteridin-5(6H)-yl]benzonitrile] | 0.1 to 1
C[C@@H]1C(=O)N(c2cccc(C#N)c2)c2cnc(Nc3ccc(N)c(C(F)(F)F)c3)nc2N1C1CCC(F)(F)CC1 [compound 275] | > 1
C[C@@H]1C(=O)N(c2cccc(C#N)c2)c2cnc(Nc3cc(F)c(O)c(F)c3)nc2N1C1CCC(F)(F)CC1 [compound 276, 3-[(7R)-8-(4,4-difluorocyclohexyl)-2-[(3,5-difluoro-4-hydroxyphenyl)amino]-7-methyl-6-oxo-7,8-dihydropteridin-5(6H)-yl]benzonitrile] | ≤ 0.1
C[C@@H]1C(=O)N(c2cccc(C#N)c2)c2cnc(Nc3cc(F)c4[nH]c(=O)oc4c3)nc2N1C1CCC(F)(F)CC1 [compound 277, 3-[(7R)-8-(4,4-difluorocyclohexyl)-2-[(4-fluoro-2-oxo-2,3-dihydro-1,3-benzoxazol-6-yl)amino]-7-methyl-6-oxo-7,8-dihydropteridin-5(6H)-yl]benzonitrile] | ≤ 0.1
CC(C)Oc1ccc(N2C(=O)[C@@H](C)N(C3CCC(F)(F)CC3)c3nc(Nc4cc(F)c5[nH]c(=O)oc5c4)ncc32)cc1C#N [compound 278, 5-[(7R)-8-(4,4-difluorocyclohexyl)-2-[(4-fluoro-2-oxo-2,3-dihydro-1,3-benzoxazol-6-yl)amino]-7-methyl-6-oxo-7,8-dihydropteridin-5(6H)-yl]-2-(propan-2-yloxy)benzonitrile] | ≤ 0.1
COc1ccc(N2C(=O)[C@@H](C)N(C3CCC(F)(F)CC3)c3nc(Nc4cnc5[nH]ncc5c4)ncc32)cc1C#N [compound 279, 5-[(7R)-8-(4,4-difluorocyclohexyl)-7-methyl-6-oxo-2-(1H-pyrazolo[3,4-b]pyridin-5-ylamino)-7,8-dihydropteridin-5(6H)-yl]-2-methoxybenzonitrile] | ≤ 0.1
